Measured values: patent publication EP0385106A1, “Sustained release bolus effective for the prolonged prevention, treatment or control of nematode, acarid and endo- and ectoparasitic infestations of ruminants” (AMERICAN CYANAMID COMPANY, priority 1989, dated 1990)

Legend:
Type in all cases: in vivo
nematode eggs = experiment: Nematode eggs per gram of feces in pastured cattle (Example 14)
Procedure: (§1) One half boluses (weight 25.5 to 27.0 g) and are administered to cattle on pasture. […] In this test pastured animals are randomly divided into groups of 5 animals per group and ear-tagged. The feces of all animals is examined prior to the tests in order to determine the average number of nematode eggs per gram of feces of the test animals. […] The test is begun with all animals receiving one half of a bolus weighing about 25 to 27 grams. […] The animals are then placed in individual paddocks and examined at intervals during the holding period up to 120 days. […]

Oesophlogostonum = experiment: Per cent control of nematodes in cattle (Example 14); conditions: dewormed 57 days earlier
Procedure: as §1

Cooperia = experiment: as above; conditions: dewormed 57 days earlier
Procedure: as §1

Haemonchus = experiment: as above; conditions: dewormed 57 days earlier
Procedure: as §1

Ostertagia = experiment: as above; conditions: dewormed 57 days earlier
Procedure: as §1

[1] = Weight gains of cattle (Example 14)
Procedure: as §1

With c1ccc([C@H]2CN3CCSC3=N2)cc1 [Levamisole] the “Average number of nematode eggs per gram of feces” value (from here on “Average number … per gram of feces”) (nematode eggs; Day 0 (before treatment)) was “(2850)”, the “Average number … per gram of feces” value (nematode eggs; Day 7) was 5 and the “per cent in parentheses beside the egg count (reduction of nematode eggs)” value (nematode eggs; Day 7) was 99.9%. For the same compound, the “Average number … per gram of feces” value (nematode eggs; Day 62 (levamisole group re-treated on day 62)) was 755, the “Average number … per gram of feces” value (nematode eggs; Day 119) was 146 and the “Avg. number worms Oesophlogostonum” value (Oesophlogostonum) was 117. For the same compound, the “Avg. number worms Cooperia” value (Cooperia) was 5937, the “Avg. number worms Haemonchus” value (Haemonchus) was 2325 and the “Avg. number worms Ostertagia” value (Ostertagia) was 729. The “Average weight gains (Kg) from Day 0” value ([1]; Day 7) was 7 kg, the “Average weight gains (Kg) from Day 0” value ([1]; Day 62) was 0 kg and the “Average weight gains (Kg) from Day 0” value ([1]; Day 110) was 21 kg.
